Results taken from patent US11370841B2, “Methods of treating fibroblast growth factor 19-mediated cancers and tumors” (NGM Biopharmaceuticals, Inc., priority 2016, dated 2022).

How the values were obtained:
FGF19-mediated HCC = assay: Tumorigenicity study in db/db mice (AAV-SOCS3, tofacitinib); assay type: in vivo
Experimental: Blood parameters. Blood was collected from tail vein in un-anesthetized animals using microvette serum gel tubes (Sarstedt) for measurements of glucose, insulin, ALT, AST, ALP, bile acids, and FGF19 concentrations. Serum samples were prepared by centrifugation at 4° C. for 10 minutes at 6000 g after clotting at room temperature for 30 minutes. For HbA1c measurements, whole blood was collected after euthanasia by cardiac puncture into EDTA-tubes and quickly inverted multiple times. HbA1c (from whole blood samples) and liver enzyme (from serum samples) levels were measured on Cobas Integra 400 Clinical Analyzer (Roche Diagnostics). Serum FGF19 level was determined by FGF19 enzyme-linked immunosorbent assays (ELISA) (Biovendor). Serum insulin was assessed with ELISA kits from ALPCO. Concentrations of total bile acids in serum were determined using a 3β-hydroxysteroid dehydrogenase method (Diazyme). All assays were performed according to the manufacturers' instructions.
Histology and immunohistochemistry. Livers were fixed in 10% neutral-buffered formalin and embedded in paraffin. 5 μm sections were deparaffinized in xylenes, rehydrated sequentially in graded ethanol (100%, 95%, 80%, 70%, 50%, 2 minutes each). Hematoxylin and eosin staining was performed using standard methods. For immunohistochemical studies, liver sections were subjected to antigen retrieval in a citrate-based Antigen Unmasking Solution (Vector Laboratories), and incubated for 30 minutes with 3% H2O2 at room temperature to block endogenous peroxidase activity. Sections were stained with primary antibodies against glutamine synthetase (Thermo Fisher), BrdU, PCNA, or STAT3 in PBS containing 10% goat serum. Biotinylated secondary antibodies, ABC-HRP reagent (Vectastain ABC kit, #PK-6100, Vector Laboratories) and di-amine-benzidine (DAB) colorimetric peroxidase substrate (#SK-4100, Vector Laboratories) were used for detection. When indicated, sections were counterstained with hematoxylin. Digital imaging microscopy was performed using a Leica DM4000 microscope equipped with DFC500 camera and a scanning platform (Leica). Images for the entire liver section were acquired by stitching 70-96 fields together using Surveyor program for morphometric analysis. Glutamine synthetase-positive tumor areas were quantified using Measure/Count/Area tool from ImagePro software.
Tumorigenicity study in db/db mice. 11 to 12 week old db/db mice received a single intravenous dose of AAV containing either FGF19 or a control gene (green fluorescent protein). Body weight and blood glucose were monitored. […] Mice were euthanized 24 weeks post-AAV administration and examined for liver tumor formation by gross appearance and histology.

[1] = tested on: primary mouse hepatocytes; assay: In vitro pSTAT3 activation in primary mouse hepatocytes; assay type: cell-based; conditions: isolated mouse hepatocytes, 50 ng/ml
Experimental: Primary mouse hepatocytes were isolated from 8-10 week old wild type mice (BioReclamation/IVT). Cells were diluted in attachment media, and cells were plated on collagen-coated 6-well plate (Becton Dickinson). Four hours later, cells were changed into M199 media supplemented with 10% FBS, 2 mM glutamine, 100 unit/ml penicillin, 100 unit/ml streptomycin, and cultured for 16 hours at 37° C. When indicated, 50 ng/ml FGF19 protein or 50 ng/ml mouse IL-6 (Peprotech) were added.
Cell extracts were prepared in 50 mM Tris-Cl, PH 7.2, 150 mM NaCl, 1% NP-40, 0.1% SDS, 0.5% sodium deoxycholate supplemented with a protease inhibitor cocktail (Roche) and phosphatase inhibitors (Sigma, phosphatase inhibitor cocktail set 2 and set 3), and protein concentrations were determined by BCA protein assay (Thermo Scientific).
Immunoblotting. Cell or tissue lysates were mixed with 4×SDS sample loading buffer (50 mM Tris-Cl, pH6.8, 2.5% SDS, urea, 4% β-mercaptoethanol), heated for 10 minutes at 95° C., and separated on 4-20% SDS-polyacrylamide gels (Life Technologies) in 1×MOPS running buffer. Proteins were transferred onto PVDF membranes (GE Healthcare). Membranes were blocked in TBST buffer (20 mM Tris-Cl, pH 7.6, 137 mM NaCl, 0.1% Tween-20) containing 5% non-fat dry milk for 1 hour at room temperature, and incubated with anti-pSTAT3^Y705, anti-total STAT3, anti-pERK, anti-total ERK, or anti-β-actin antibodies in blocking buffer at 4° C. overnight. Membranes were washed in TBST extensively, and bound proteins were detected with horseradish peroxidase-conjugated goat-anti-mouse IgG or goat-anti-rabbit IgG antibodies (GE Healthcare) for 1 hour at room temperature. […]
To investigate an in vitro direct effect of FGF19 on STAT3 activation in isolated hepatocytes, pSTAT3^Y705 levels in primary cultures of hepatocytes upon FGF19 stimulation were analyzed by western blotting. […] Cell lysates were prepared at the indicated time points following FGF19 stimulation and analyzed for phosphorylation of the various proteins.

[2] = tested on: primary mouse hepatocytes; assay: In vitro BrdU incorporation in primary mouse hepatocytes; assay type: cell-based; conditions: 48 hours incubation
Experimental: FIGS. 2A-2E depict non-cell autonomous promotion of hepatocellular proliferation by FGF19. 11 week old mice (n=5 per group) were implanted with osmotic pumps releasing BrdU (8.5 mg/kg/day) and FGF19 protein (0.4 mg/kg/day). Livers were harvested 6 days post-implant. (FIG. 2A) Flow cytometry analysis of BrdU-labeled livers is shown. Representative histograms from hepatocytes stained with 7-ADD and anti-BrdU-APC are shown. (FIG. 2B) BrdU-positive hepatocytes as a percentage of total hepatocytes from vehicle (V)-treated (n=5) or FGF19-treated (n=5) mice were quantified by flow cytometry. (FIG. 2C) Shown are circulating FGF19 levels on day 6 post-implant of osmotic pumps. (FIG. 2D) Lack of proliferative effects of FGF19 on primary mouse hepatocytes. Primary cultures of hepatocytes isolated from mouse liver were incubated with recombinant FGF19 protein at the indicated concentrations for 48 hours and BrdU was added during the last 20 hours of incubation. BrdU incorporation was determined using a luminescence method. Mouse hepatocyte growth factor (mHGF) was included as a positive control. RLU, relative luminescence unit. (FIG. 2E) Lack of proliferative effects of FGF19 on primary human hepatocytes. Primary cultures of hepatocytes isolated from human liver were incubated with recombinant FGF19 protein. Human hepatocyte growth factor (hHGF) was included as a positive control. […]

[3] = diet with 0.01% tofacitinib from 4 weeks after AAV-FGF19, 20 weeks

## C[C@@H]1CCN(C(=O)CC#N)C[C@@H]1N(C)c1ncnc2[nH]ccc12 [tofacitinib]
FGF19-mediated HCC; [3]
  Average tumor load: reduced
  Number of macroscopically detectable tumors: reduced
FGF19-mediated HCC; tofacitinib in diet
  FGF19's effect on normalizing blood levels of HbA1c: no impact
  FGF19's effect on normalizing blood levels of bile acids: no impact
  FGF19's effect on normalizing blood levels of glucose: no impact
FGF19-mediated HCC; tofacitinib initiated 4 weeks after AAV, euthanized at 24 weeks
  FGF19-induced liver tumor formation: inhibited

B1: IL-6: mouse IL-6 (Peprotech), positive control for pSTAT3 activation (protein, UniProt P08505 25-211, looked up)
Interleukin-6: FPTSQVRRGDFTEDTTPNRPVYTTSQVGGLITHVLWEIVEMRKELCNGNSDCMNNDDALAENNLKLPEIQRNDGCYQTGYNQEICLLKISSGLLEYHSYLEYMKNNLKDNKKDKARVLQRDTETLIHIFNQEVKDLHKIVLPTPISNALLTDKLESQKEWLRTKTIQFILKSLEEFLKVTLRSTRQT
[1]
  STAT3 phosphorylation (pSTAT3 Y705) by western blotting: robust elevated phosphorylation

B2: HGF: recombinant hepatocyte growth factor (Peprotech), positive control for BrdU incorporation (protein, UniProt Q08048 33-495; Q08048 496-728, looked up)
Hepatocyte growth factor …: QKKRRNTLHEFKKSAKTTLTKEDPLLKIKTKKVNSADECANRCIRNRGFTFTCKAFVFDKSRKRCYWYPFNSMSSGVKKGFGHEFDLYENKDYIRNCIIGKGGSYKGTVSITKSGIKCQPWNSMIPHEHSFLPSSYRGKDLQENYCRNPRGEEGGPWCFTSNPEVRYEVCDIPQCSEVECMTCNGESYRGPMDHTESGKTCQRWDQQTPHRHKFLPERYPDKGFDDNYCRNPDGKPRPWCYTLDPDTPWEYCAIKTCAHSAVNETDVPMETTECIQGQGEGYRGTSNTIWNGIPCQRWDSQYPHKHDITPENFKCKDLRENYCRNPDGAESPWCFTTDPNIRVGYCSQIPKCDVSSGQDCYRGNGKNYMGNLSKTRSGLTCSMWDKNMEDLHRHIFWEPDASKLNKNYCRNPDDDAHGPWCYTGNPLIPWDYCPISRCEGDTTPTIVNLDHPVISCAKTKQLR
Hepatocyte growth factor beta …: VVNGIPTQTTVGWMVSLKYRNKHICGGSLIKESWVLTARQCFPARNKDLKDYEAWLGIHDVHERGEEKRKQILNISQLVYGPEGSDLVLLKLARPAILDNFVSTIDLPSYGCTIPEKTTCSIYGWGYTGLINADGLLRVAHLYIMGNEKCSQHHQGKVTLNESELCAGAEKIGSGPCEGDYGGPLICEQHKMRMVLGVIVPGRGCAIPNRPGIFVRVAYYAKWIHKVILTYKL
[2]
  BrdU signal: strong BrdU signals
